In patent publication US6753323B2, “Topical administration of amifostine and related compounds” (MedImmune Oncology, Inc., priority 1998, dated 2004):

Assays:
Candida albicans = assay: Microbial growth inhibition, refrigerated storage (2°-8° C.); format: cell-based; conditions: refrigerated 2°-8° C.; for % Change: vs theoretical 0 hr count
Description: (§1) Amifostine was studied for its ability to inhibit microbial growth. Clear 10 cc vials, stoppers and seals were sterilized for use in the study. Two separate procedures were performed: a refrigerated storage study (2° to 8° C.) and a room temperature storage study (20° to 25° C.). For each test portion, positive controls were prepared for each organism by placing 9.5 mL sterile 0.9% sodium chloride into separate sterile vials and inoculating each with 10^3 to 10^4 of one of the test organisms. In addition, amifostine test specimens were prepared for each test portion by reconstituting six Ethyol® vials with 0.9% sodium chloride, the contents of each of these vials were then transferred to clear sterile vials to allow for easier visual examination. One vial was designated as a negative control, and each of the remaining five vials was inoculated with 10^3 to 10^4 of one of the test organisms. All vials were protected from light throughout the test to simulate the amber Ethyol® vial.
(§2) Positive controls, product test specimens, and a negative control were prepared. At this time, population counts were performed on each positive control. Population counts were also performed on positive controls and product test specimens at 24, 48 and 72 hours. These samples were diluted with sterile water and plated in duplicate with a target of 30 to 300 colonies per plate. Candida albicans, Escherichia coli, Pseudomonas aeruginosa, and Staphylococcus aureus were overpoured with TSA agar and incubated at 30-35° C. for 48 hours. Aspergillus niger was overpoured with Sabouraud agar and incubated at 20-25° C. for 48 hours.

Aspergillus niger = assay: as above; format: cell-based; conditions: A. niger, refrigerated 2°-8° C.; for % Change: vs theoretical 0 hr count
Description: as §1, §2

Staphylococcus aureus = assay: as above; format: cell-based; conditions: S. aureus, refrigerated 2°-8° C.; for % Change: vs theoretical 0 hr count
Description: as §1, §2

Pseudomonas aeruginosa = assay: as above; format: cell-based; conditions: P. aeruginosa, refrigerated 2°-8° C.; for % Change: vs theoretical 0 hr count
Description: as §1, §2

Escherichia coli = assay: as above; format: cell-based; conditions: E. coli, refrigerated 2°-8° C.; for % Change: vs theoretical 0 hr count
Description: as §1, §2

oral mucosa of mice = conditions: topical in carbowax to oral mucosa; cited from earlier work
rectal wall of rats = conditions: intrarectal injection of 2% amifostine gel; cited from earlier work
mouse skin = conditions: cited from earlier work
[1] = system: five compendial organisms; assay: Microbial growth inhibition, room temperature storage, summary over all test organisms; format: cell-based
Description: as §1
Positive controls, product test specimens, and a negative control were prepared. At this time, population counts were performed on each positive control. Population counts were also performed on positive controls and product test specimens at 24 and 48 hours. These samples were diluted with sterile water and plated in duplicate with a target of 30 to 300 colonies per plate. […]

small intestine of rats = conditions: 150 mg/mL in pH 9 Tris buffer, intralumenal; cited from earlier work
[2] = Radiation-induced mucositis in mice (inferior lip mucosa model, Parkins score); format: in vivo, C57BL/6 mice; conditions: C57BL/6, mouse, in vivo; IP, given before each fraction of radiation, mice; read-out: maximum tolerated dose
Description: (§3) The experimental murine model was developed by Parkins et al., Radiother. […] C57BL/6 mice 8-10 weeks old were used and fed with semi-liquid food. Unanesthetized mice were maintained in supine position and irradiated exclusively on the tip of the mouth. […] J. Radiat. Oncol. Biol. Phys., 8, 145-148 (1982). The irradiation was performed with an RT 250 Phillips apparatus, delivering 1.98 Gy/min (200 kV, 20 mA, filter of 0.2 mm Cu). During irradiation, a constant normobaric air renewal was maintained.
(§4) For the systemic applications, amifostine was dissolved in a […] solution 5 minutes before systemic IP injection of 200 to 400 mg/kg, which was administered 30 minutes before irradiation. A placebo solution of […] was used for a control group. For the topical applications, 50 mg of amifostine was dissolved in 1 mL of a solution containing 1% stearate, 5% H2O, and ammonia to adjust the pH of the solution to 8.8. The topical application was administered to the lip mucosa of the mice for a period of 30 minutes before each radiation session, and was maintained throughout the duration of irradiation. A single dose of 16.5 Gy, and a fractionated schedule delivering 24 Gy in 4 fractions over 2 days (with 8 hour intervals between fractions) were administered.
(§5) Four groups of eight mice were scored and weighed each day. Any mice having lost 30% or more of the initial weight was sacrificed. The effect of mucositis and weight loss were compared at the maximum of the acute reactions (day 11) among the different groups receiving or not receiving amifostine treatments, using the Mann and Whitney test.

[3] = system: inferior lip mucosa of the mice; assay: as above; format: in vivo, C57BL/6 mice; conditions: for maximum grade of mucosal reactions: Parkins score
Description: as §3, §4, §5

[4] = system: intestinal mucosa in patients; conditions: enema in Proctofoam, 100 to 450 mg, 45 minutes prior to pelvic radiation; cited from earlier work
murine skin = conditions: gauze with 10% solution in saline on murine skin 15 to 60 minutes, then 137Cs irradiation; cited from earlier work

## NCCCNCCSP(=O)(O)O [amifostine, S-2-(3-aminopropylamino)ethyl dihydrogen phosphorothioate]
Candida albicans; 24 hr
  CFU/mL in Amifostine: 3.99 × 10^3 CFU/mL
  % Change: −63.0%
Candida albicans; 48 hr
  CFU/mL in Amifostine: 2.09 × 10^3 CFU/mL
  % Change: −80.6%
Candida albicans; 72 hr
  CFU/mL in Amifostine: 7.13 × 10^3 CFU/mL
  % Change: −34.0%
Aspergillus niger; 24 hr
  CFU/mL in Amifostine: 1.78 × 10^5 CFU/mL
  % Change: −40.7%
Aspergillus niger; 48 hr
  CFU/mL in Amifostine: 1.67 × 10^5 CFU/mL
  % Change: −44.3%
Aspergillus niger; 72 hr
  CFU/mL in Amifostine: 1.67 × 10^5 CFU/mL
  % Change: −44.3%
Staphylococcus aureus; 24 hr
  CFU/mL in Amifostine: 4.75 × 10^1 CFU/mL
  % Change: −50.0%
Staphylococcus aureus; 48 hr
  CFU/mL in Amifostine: 4.75 × 10^1 CFU/mL
  % Change: −50.0%
Staphylococcus aureus; 72 hr
  CFU/mL in Amifostine: 4.75 × 10^1 CFU/mL
  % Change: −50.0%
Pseudomonas aeruginosa; 24 hr
  CFU/mL in Amifostine: 3.04 × 10^3 CFU/mL
  % Change: −20.0%
Pseudomonas aeruginosa; 48 hr
  CFU/mL in Amifostine: 1.76 × 10^3 CFU/mL
  % Change: −53.7%
Pseudomonas aeruginosa; 72 hr
  CFU/mL in Amifostine: 1.85 × 10^3 CFU/mL
  % Change: −51.3%
Escherichia coli; 24 hr
  CFU/mL in Amifostine: 2.85 × 10^2 CFU/mL
  % Change: −70.0%
Escherichia coli; 48 hr
  CFU/mL in Amifostine: 0 CFU/mL
  % Change: −100%
Escherichia coli; 72 hr
  CFU/mL in Amifostine: 0 CFU/mL
  % Change: −100%
Oral mucosa of mice
  toxicity at the dosages tested: no toxicity observed
Rectal wall of rats
  tissue level of metabolite WR-1065 after topical application: accumulation of the amifostine metabolite WR-1065 in the rectal wall
Mouse skin; paste (aqueous sodium bicarbonate pH 7 and Unibase) on mouse skin, any dose studied
  radioprotective effect, topically applied: no radioprotective effect
Mouse skin; systemic administration, mice
  radioprotective effect, systemically administered: effective in reducing the severity of radiation damage
[1]
  concentration of viable microorganisms at 24 hours: reduced in four of the five compendial organisms
Small intestine of rats
  radioprotection against intestinal mucositis: effective radioprotector
[2]
  MTD at 2 days: 400 mg/kg
[3]; 200 mg/kg IP 30 min before irradiation, 24 Gy in 4 fractions over 2 days, day 11, ± standard error
  maximum grade of mucosal reactions: 3.5±0.2
[3]; 400 mg/kg IP 30 min before irradiation, 24 Gy in 4 fractions over 2 days, day 11, ± standard error
  maximum grade of mucosal reactions: 2.5±0.4
[3]; single dose of 16.5 Gy, IP and topical amifostine groups
  grades of mucosal reactions compared to the control group: significantly lower
[3]; topical 50 mg/mL solution pH 8.8 on lip mucosa 30 min before and during irradiation, 24 Gy in 4 fractions over 2 days, day 11, ± standard error
  maximum grade of mucositis: 3.9±0.2
[4]
  rectal mucosal damage, test group vs control group: no significant differences
Murine skin
  radioprotective effect, topically applied: no significant radioprotective effects
